Experimental data reported in patent EP2951180B1, “2,6,7,8 SUBSTITUTED PURINES AS HDM2 INHIBITORS” (Merck Sharp & Dohme Corp., priority 2013, dated 2014).

Target: T1, HDM2 (Homo sapiens, UniProt Q00987)
T1 construct: Thioredoxin (N); made in house; host or cells: E. coli strain BL21(DE3)Rosetta
Test: HDM2 FRET assay (inhibition of binding of FITC labeled p53-pocket peptide to HDM2)
Settings: 0.5 nM HDM2 (residues 17 to 125), 3nM peptide, two hour incubation at room temperature; read-out: FRET IC50
How it was run: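 Displacement of FITC-p53 peptide (3 nM) from His-tagged HDM2 (0.5 nM) is measured by Tb-to-fluorescein FRET in PBS, 0.01% BSA, 0.01% Tween-20. IC50 values derive from 10-point curves.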

T1 sequence (Q00987 17-125): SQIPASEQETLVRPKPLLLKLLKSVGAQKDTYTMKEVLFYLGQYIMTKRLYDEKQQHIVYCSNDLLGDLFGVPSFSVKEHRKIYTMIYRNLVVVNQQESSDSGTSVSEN

In order of rising IC50:
1. C[C@H]1OCCN(c2nc3nc(-c4noc(=O)[nH]4)nc(-c4cncc(Cl)c4)c3n2C[C@H]2CC[C@H](C)CC2)[C@@H]1c1ccccc1 [Example 16.135, 3-{6-(5-chloropyridin-3-yl)-7-[(trans-4-methylcyclohexyl)methyl]-8-[(2R,3R)-2-methyl-3-phenylmorpholin-4-yl]-7H-purin-2-yl}-1,2,4-oxadiazol-5(4H)-one]  0.504 nM
2. C[C@H]1OCCN(c2nc3nc(-c4n[nH]c(=O)o4)nc(-c4cncc(Cl)c4)c3n2C[C@H]2CC[C@H](C)CC2)[C@@H]1c1ccccc1 [Example 16.133, 5-{6-(5-chloropyridin-3-yl)-7-[(trans-4-methylcyclohexyl)methyl]-8-[(2R,3R)-2-methyl-3-phenylmorpholin-4-yl]-7H -purin-2-yl}-1,3,4-oxadiazol-2(3H)-one]  0.569 nM
3. C[C@H]1OCCN(c2nc3nc(-c4noc(=O)[nH]4)nc(-c4cccc(Cl)c4)c3n2C[C@H]2CC[C@H](C)CC2)[C@@H]1c1ccccc1 [Example 16.127, 3-{6-(3-chlorophenyl)-7-[(trans-4-methylcyclohexyl)methyl]-8-[(2R,3R)-2-methyl-3-phenylmorpholin-4-yl]-7H-purin-2-yl}-1,2,4-oxadiazol-5(4H)-one]  1.06 nM
4. C[C@H]1CC[C@H](Cn2c(N3CCOC[C@H]3c3ccccc3)nc3nc(-c4noc(=O)[nH]4)nc(-c4ccnc(Cl)c4)c32)CC1 [Example 16.110, 3-{6-(2-chloropyridin-4-yl)-7-[(trans-4-methylcyclohexyl)methyl]-8-[(3R)-3-phenylmorpholin-4-yl]-7H-purin-2-yl}-1,2,4-oxadiazol-5(4H)-one]  1.14 nM
5. C[C@H]1CC[C@H](Cn2c(N3CCOC[C@H]3c3ccccc3)nc3nc(-c4noc(=O)[nH]4)nc(-c4cc(Cl)cnc4F)c32)CC1 [Example 16.108, 3-{6-(5-chloro-2-fluoropyridin-3-yl)-7-[(trans-4-methylcyclohexyl)methyl]-8-[(3R)-3-phenylmorpholin-4-yl]-7H-purin-2-yl}-1,2,4-oxadiazol-5(4H)-one]  1.16 nM
6. COc1cc(-c2nc(-c3noc(=O)[nH]3)nc3nc(N4CCOC[C@H]4c4ccccc4)n(C[C@H]4CC[C@H](C)CC4)c23)cc(Cl)n1 [Example 16.109, 3-{6-(2-chloro-6-methoxypyridin-4-yl)-7-[(trans-4-methylcyclohexyl)methyl]-8-[(3R)-3-phenylmorpholin-4-yl]-7H-purin-2-yl}-1,2,4-oxadiazol-5(4H)-one]  1.21 nM
7. Cc1cc(Cl)cc(-c2nc(-c3noc(=O)[nH]3)nc3nc(N4CCOC[C@H]4c4ccccc4)n(C[C@H]4CC[C@H](C)CC4)c23)c1 [Example 16.114, 3-{6-(3-chloro-5-methylphenyl)-7-[(trans-4-methylcyclohexyl)methyl]-8-[(3R)-3-phenylmorpholin-4-yl]-7H-purin-2-yl}-1,2,4-oxadiazol-5(4H)-one]  1.56 nM
8. C[C@H]1CC[C@H](Cn2c(N3CCOC[C@H]3c3ccccc3)nc3nc(-c4noc(=O)[nH]4)nc(-c4cc(Cl)nc(Cl)c4)c32)CC1 [Example 16.107, 3-{6-(2,6-dichloropyridin-4-yl)-7-[(trans-4-methylcyclohexyl)methyl]-8-[(3R)-3-phenylmorpholin-4-yl]-7H-purin-2-yl}-1,2,4-oxadiazol-5(4H)-one]  1.66 nM
9. CS(=O)(=O)c1cc(Cl)cc(-c2nc(-c3noc(=O)[nH]3)nc3nc(N4CCOC[C@H]4c4ccccc4)n(C[C@H]4CC[C@H](C)CC4)c23)c1 [Example 16.111, 3-{6-[3-chloro-5-(methylsulfonyl)phenyl]-7-[(trans-4-methylcyclohexyl)methyl]-8-[(3R)-3-phenylmorpholin-4-yl]-7H-purin-2-yl}-1,2,4-oxadiazol-5(4H)-one]  2.9 nM
10. Cc1cncc(-c2nc(-c3noc(=O)[nH]3)nc3nc(N4CCOC[C@H]4c4ccccc4)n(C[C@H]4CC[C@H](C)CC4)c23)c1 [Example 16.115, 3-{7-[(trans-4-methylcyclohexyl)methyl]-6-(5-methylpyridin-3-yl)-8-[(3R)-3-phenylmorpholin-4-yl]-7H-purin-2-yl}-1,2,4-oxadiazol-5(4H)-one]  3.92 nM
11. C[C@@H]1[C@@H](C)OCCN1c1nc2nc(-c3noc(=O)[nH]3)nc(-c3cncc(Cl)c3)c2n1C[C@H]1CC[C@H](C)CC1 [Example 16.136, 3-{6-(5-chloropyridin-3-yl)-8-[(2R,3R)-2,3-dimethylmorpholin-4-yl]-7-[(trans-4-methylcyclohexyl)methyl]-7H-purin-2-yl}-1,2,4-oxadiazol-5(4H)-one]  7.19 nM
12. Cc1noc([C@@H]2COCCN2c2nc3nc(-c4noc(=O)[nH]4)nc(-c4cccc(Cl)c4)c3n2C[C@H]2CC[C@H](C)CC2)n1 [Example 16.116, 3-{6-(3-chlorophenyl)-7-[(trans-4-methylcyclohexyl)methyl]-8-[(3S)-3-(3-methyl-1,2,4-oxadiazol-5-yl)morpholin-4-yl]-7H-purin-2-yl}-1,2,4-oxadiazol-5(4H)-one]  7.26 nM
13. Cc1csc([C@@H]2COCCN2c2nc3nc(-c4noc(=O)[nH]4)nc(-c4cccc(Cl)c4)c3n2C[C@H]2CC[C@H](C)CC2)n1 [Example 16.120, 3-{6-(3-chlorophenyl)-7-[(trans-4-methylcyclohexyl)methyl]-8-[(3S)-3-(4-methyl-1,3-thiazol-2-yl)morpholin-4-yl]-7H-purin-2-yl}-1,2,4-oxadiazol-5(4H)-one]  9.14 nM
14. Cc1noc([C@@H]2COCCN2c2nc3nc(-c4n[nH]c(=O)o4)nc(-c4cccc(Cl)c4)c3n2C[C@H]2CC[C@H](C)CC2)n1 [Example 16.121, 5-{6-(3-chlorophenyl)-7-[(trans-4-methylcyclohexyl)methyl]-8-[(3S)-3-(3-methyl-1,2,4-oxadiazol-5-yl)morpholin-4-yl]-7H-purin-2-yl}-1,3,4-oxadiazol-2(3H)-one]  9.18 nM
15. C[C@H]1CC[C@H](Cn2c(N3CCOC[C@H]3CF)nc3nc(-c4noc(=O)[nH]4)nc(-c4cccc(Cl)c4)c32)CC1 [Example 16.137, 3-{6-(3-chlorophenyl)-8-[(3S)-3-(fluoromethyl)morpholin-4-yl]-7-[(trans-4-methylcyclohexyl)methyl]-7H-purin-2-yl}-1,2,4-oxadiazol-5(4H)-one]  11.9 nM
16. C[C@H]1CC[C@H](Cn2c(N3CCOC[C@H]3c3ccccc3)nc3nc(-c4noc(=O)[nH]4)nc(-c4cc(Cl)cc(N5CCCC5)c4)c32)CC1 [Example 16.113, 3-{6-(3-chloro-5-pyrrolidin-1-ylphenyl)-7-[(trans-4-methylcyclohexyl)methyl]-8-[(3R)-3-phenylmorpholin-4-yl]-7H-purin-2-yl}-1,2,4-oxadiazol-5(4H)-one]  14.9 nM
17. Cc1nc(-c2cccc(-c3nc(-c4noc(=O)[nH]4)nc4nc(N5CCOC[C@H]5c5ccccc5)n(C[C@H]5CC[C@H](C)CC5)c34)c2)no1 [Example 16.112, 3-{7-[(trans-4-methylcyclohexyl)methyl]-6-[3-(5-methyl-1,2,4-oxadiazol-3-yl)phenyl]-8-[(3R)-3-phenylmorpholin-4-yl]-7H-purin-2-yl}-1,2,4-oxadiazol-5(4H)-one]  18 nM
18. C[C@@H]1OCCN(c2nc3nc(-c4noc(=O)[nH]4)nc(-c4cncc(Cl)c4)c3n2C[C@H]2CC[C@H](C)CC2)[C@@H]1c1ccccc1 [Example 16.129, 3-{6-(5-chloropyridin-3-yl)-7-[(trans-4-methylcyclohexyl)methyl]-8-[(2S,3R)-2-methyl-3-phenylmorpholin-4-yl]-7H-purin-2-yl}-1,2,4-oxadiazol-5(4H)-one]  21.9 nM
19. C[C@@H]1OCCN(c2nc3nc(-c4n[nH]c(=O)o4)nc(-c4cncc(Cl)c4)c3n2C[C@H]2CC[C@H](C)CC2)[C@@H]1c1ccccc1 [Example 16.130, 5-{6-(5-chloropyridin-3-yl)-7-[(trans-4-methylcyclohexyl)methyl]-8-[(2S,3R)-2-methyl-3-phenylmorpholin-4-yl]-7H-purin-2-yl}-1,3,4-oxadiazol-2(3H)-one]  28.9 nM
20. C[C@H]1CC[C@H](Cn2c(N3CCOC[C@H]3CF)nc3nc(-c4n[nH]c(=O)o4)nc(-c4cncc(Cl)c4)c32)CC1 [Example 16.139, 5-{6-(5-chloropyridin-3-yl)-8-[(3S)-3-(fluoromethyl)morpholin-4-yl]-7-[(trans-4-methylcyclohexyl)methyl]-7H-purin-2-yl}-1,3,4-oxadiazol-2(3H)-one]  37.1 nM
21. Cc1nnc([C@@H]2COCCN2c2nc3nc(-c4noc(=O)[nH]4)nc(-c4cccc(Cl)c4)c3n2C[C@H]2CC[C@H](C)CC2)o1 [Example 16.138, 3-{6-(3-chlorophenyl)-7-[(trans-4-methylcyclohexyl)methyl]-8-[(3S)-3-(5-methyl-1,3,4-oxadiazol-2-yl)morpholin-4-yl]-7H-purin-2-yl}-1,2,4-oxadiazol-5(4H)-one]  79.1 nM
22. C[C@@H]1OCCN(c2nc3nc(-c4noc(=O)[nH]4)nc(-c4cccc(Cl)c4)c3n2C[C@H]2CC[C@H](C)CC2)[C@@H]1c1ccccc1 [Example 16.126, 3-{6-(3-chlorophenyl)-7-[(trans-4-methylcyclohexyl)methyl]-8-[(2S,3R)-2-methyl-3-phenylmorpholin-4-yl]-7H-purin-2-yl}-1,2,4-oxadiazol-5(4H)-one]  85.6 nM
23. C[C@@H]1OCCN(c2nc3nc(-c4n[nH]c(=O)o4)nc(-c4cccc(Cl)c4)c3n2C[C@H]2CC[C@H](C)CC2)[C@@H]1c1ccccc1 [Example 16.132, 5-{6-(3-chlorophenyl)-7-[(trans-4-methylcyclohexyl)methyl]-8-[(2S,3R)-2-methyl-3-phenylmorpholin-4-yl]-7H-purin-2-yl} - 1,3,4-oxadiazol-2(3H)-one]  89.5 nM
24. C[C@H]1CC[C@H](Cn2c(N3CCOC[C@H]3C(N)=O)nc3nc(-c4noc(=O)[nH]4)nc(-c4cccc(Cl)c4)c32)CC1 [Example 16.117, (3 S)-4-[6-(3-chlorophenyl)-7-[(trans-4-methylcyclohexyl)methyl]-2-(5-oxo-4,5-dihydro-1,2,4-oxadiazol-3-yl)-7H-purin-8-yl]morpholine-3-carboxamide]  105 nM
